Patent publication US9169290B2, “Peptides and their use” (priority 2007, dated 2015)
Where two headings read alike, the source gives them in different places.

Key:
C. tropicalis = assay: Broth dilution antifungal susceptibility testing of yeasts (CLSI M27-A), MIC; assay type: cell-based, Candida tropicalis
Method: (§1) Broth Dilution Antifungal Susceptibility Testing
(§2) The sensitivity of relevant fungal strains to the peptides was determined using Clinical Laboratory Standard Institute (CLSI; formerly NCCLS) Approved Standards. Fungal susceptibility was tested using “Reference Method for Broth Dilution Antifungal Susceptibility Testing of Filamentous Fungi; Approved Standard M38-P”, and yeast susceptibility was tested using “Reference Method for Broth Dilution Antifungal Susceptibility Testing of Yeasts; Approved Standard—Second Edition M27-A”.

C. albicans = assay type: cell-based, Candida albicans
Method: as §1
(§3) The sensitivity of relevant fungal strains to the peptides was determined using Clinical Laboratory Standard Institute (CLSI; formerly NCCLS) Approved Standards.

C. krusei = assay type: cell-based, Candida krusei
Method: as §1, §3

Cryptococcus neoformans = assay: Broth dilution antifungal susceptibility testing of yeasts (CLSI M27-A), MIC; assay type: cell-based; conditions: Cryptococcus neoformans strain DSM11959
Method: as §1, §2

Fusarium solani = assay: Broth dilution antifungal susceptibility testing, MIC; assay type: cell-based; conditions: Fusarium solani strain NCPF2877
Method: as §1, §2

Alternaria spp. = assay: as above; assay type: cell-based; conditions: Alternaria spp. strain DM 2006 1218a
Method: as §1, §2

[1] = test system: Scopulariopsis brevicaulis; assay: as above; assay type: cell-based; conditions: Scopulariopsis brevicaulis strain DM 2006 1025
Method: as §1, §2

Penicillium spp. = assay: as above; assay type: cell-based; conditions: Penicillium spp. strain DM 2006 1285b
Method: as §1, §2

C. glabrata = assay: Broth dilution antifungal susceptibility testing of yeasts (CLSI M27-A), MIC; assay type: cell-based, Candida glabrata
Method: as §1, §2

A. niger = assay: Broth dilution antifungal susceptibility testing of filamentous fungi (CLSI M38-P), MIC; assay type: cell-based, Aspergillus niger
Method: as §1, §2

C. parapsilosis = assay type: cell-based, Candida parapsilosis
Method: as §1
The sensitivity of relevant fungal strains to the peptides was determined using Clinical Laboratory Standard Institute (CLSI; formerly NCCLS) Approved Standards. Fungal susceptibility was tested using “Reference Method for Broth Dilution Antifungal Susceptibility Testing of Filamentous Fungi; […];

A. nidulans = assay: Broth dilution antifungal susceptibility testing of filamentous fungi (CLSI M38-P), MIC; assay type: cell-based, Aspergillus nidulans
Method: as §1, §2

N=C(N)NCCC[C@@H](N)C(=O)N[C@H](CCCNC(=N)N)C(=O)N[C@H](CCCNC(=N)N)C(=O)N[C@H](CCCNC(=N)N)C(=O)N[C@H](CCCNC(=N)N)C(=O)N[C@H](CCCNC(=N)N)C(=O)N[C@H](CCCNC(=N)N)C(=O)N[C@H](CCCNC(=N)N)C(=O)N[C@H](CCCNC(=N)N)C(=O)N[C@H](CCCNC(=N)N)C(=O)N[C@H](CCCNC(=N)N)C(=O)N[C@H](CCCNC(=N)N)C(=O)N[C@H](CCCNC(=N)N)C(=O)O [NP339, dRdRdRdRdRdRdRdRdRdRdRdRdR]
256 µM: MIC (A. nidulans; A nidulans strain AFG99-247)
62.5 µM: MIC (A. niger; A. niger strain AFG 01-60) | MIC (A. niger; A. niger strain AFG 01-381) | MIC (A. niger; A. niger strain AFG 01-423) | MIC (A. niger; A. niger strain AFG 01-783) | MIC (A. niger; A. niger strain AFG 01-809) | MIC (A. niger; A. niger strain AFG 01-1237) | MIC (A. niger; A. niger strain AFG 01-1286) | MIC (A. niger; A. niger strain AFG 01-1424) | MIC (A. niger; A. niger strain AFG 01-1494) | MIC (A. niger; A. niger strain AFG 01-2103) | MIC (A. niger; A. niger strain AFG 01-2112) | MIC (A. niger; A. niger strain AFG 01-2267) | MIC (A. niger; A. niger strain AFG 01-2840) | MIC (A. niger; A. niger strain AFG J940179) | MIC (A. niger; A. niger strain AFG J970467) | MIC (A. nidulans; A nidulans strain AFG99-1373) | MIC (A. nidulans; A. nidulans strain AFG01-1716) | MIC (A. nidulans; A. nidulans strain AFG97-453) | MIC (A. nidulans; A. nidulans strain AFG 98-281) | MIC (A. nidulans; A. nidulans strain AFG99-2387) | MIC (A. nidulans; A. nidulans strain AFGR2952)
1 to 2 µM: MIC (C. parapsilosis; C. parapsilosis strain AM2004/0133) | MIC (C. parapsilosis; C. parapsilosis strain AM2007/0135) | MIC (C. parapsilosis; C. parapsilosis strain ATCC22019)
8 µM: MIC (C. parapsilosis; C. parapsilosis strain AM2005/0233) | MIC (C. parapsilosis; C. parapsilosis strain AM2007/0139)
15.6 µM: MIC (Penicillium spp.)
8 to 32 µM: MIC (C. parapsilosis; C. parapsilosis strain AM2007/0137)
16 µM: MIC (C. parapsilosis; C. parapsilosis strain AM2005/0238)
16 to 32 µM: MIC (C. parapsilosis; C. parapsilosis strain AM2007/0132) | MIC (C. parapsilosis; C. parapsilosis strain AM2007/0138)
2 µM: MIC (C. tropicalis; C. tropicalis strain ATCC750) | MIC, Candida albicans ATCC90028 (C. albicans) | MIC (C. krusei; C. krusei strain AM2005/0496) | MIC (C. krusei; C. krusei strain AM2005/0525) | MIC (C. krusei; C. krusei strain AM2005/0531) | MIC (C. krusei; C. krusei strain AM2007/0102) | MIC (C. krusei; C. krusei strain AM2007/0103) | MIC (C. krusei; C. krusei strain AM30274.04) | MIC (C. krusei; C. krusei strain AM30332.04.05) | MIC (C. krusei; C. krusei strain AM31194/04/05) | MIC (C. krusei; C. krusei strain AM31300/04/05) | MIC (C. krusei; C. krusei strain ATCC6258) | MIC (C. glabrata; C. glabrata strain AM2002/0085) | MIC (C. glabrata; C. glabrata strain AM2007/0113) | MIC (C. glabrata; C. glabrata strain AM2007/0115) | MIC (C. glabrata; C. glabrata strain AM2007/0118) | MIC (C. glabrata; C. glabrata strain AM2007/0120) | MIC (C. glabrata; C. glabrata strain AM2007/0125) | MIC (C. parapsilosis; C. parapsilosis strain AM2005-0112) | MIC (C. parapsilosis; C. parapsilosis strain AM2007/0136) | MIC (C. parapsilosis; C. parapsilosis strain ATCC90018)
4000 µM: MIC (A. nidulans; A nidulans strain AFG97-71)
4 to 32 µM: MIC (C. parapsilosis; C. parapsilosis strain AM2007/0131) | MIC (C. parapsilosis; C. parapsilosis strain AM2007/0134)
1000 µM: MIC (A. niger; A. niger strain AFG 01-237) | MIC (A. niger; A. niger strain AFG 01-385) | MIC (A. nidulans; A. nidulans strain AFG00-676) | MIC (A. nidulans; A. nidulans strain AFG01-835)
>4000 µM: MIC (A. niger; A. niger strain AFG 01-2620)
7.8 µM: MIC (Alternaria spp.) | MIC (A. niger; A. niger strain NCPF2022)
3.9 µM: MIC (Fusarium solani) | MIC (A. nidulans; A nidulans strain NCPF2691)
2 to 16 µM: MIC (C. parapsilosis; C. parapsilosis strain AM2005/0337)
1 µM: MIC (C. tropicalis; C. tropicalis strain AM2004/0087) | MIC (C. tropicalis; C. tropicalis strain AM2004/0088) | MIC (C. tropicalis; C. tropicalis strain AM2004/0089) | MIC (C. tropicalis; C. tropicalis strain AM2004/0090) | MIC (C. tropicalis; C. tropicalis strain AM2004/0091) | MIC (C. krusei; C. krusei strain AM2005/0492) | MIC (C. krusei; C. krusei strain AM2005/0494) | MIC (C. krusei; C. krusei strain AM2005/0498) | MIC (C. krusei; C. krusei strain AM2006/0127) | MIC (C. krusei; C. krusei strain AM2007/0104) | MIC (C. krusei; C. krusei strain AM2007/0105) | MIC (C. krusei; C. krusei strain AM2007/0106) | MIC (C. krusei; C. krusei strain AM2007/0107) | MIC (C. krusei; C. krusei strain AM2007/0109) | MIC (C. krusei; C. krusei strain AM30308.03.05) | MIC (C. krusei; C. krusei strain AM30455.04.05) | MIC (Cryptococcus neoformans) | MIC [1] | MIC (C. glabrata; C. glabrata strain AM2002/0088) | MIC (C. glabrata; C. glabrata strain AM2007/0114) | MIC (C. glabrata; C. glabrata strain AM2007/0116) | MIC (C. glabrata; C. glabrata strain AM2007/0117) | MIC (C. glabrata; C. glabrata strain AM2007/0119) | MIC (C. glabrata; C. glabrata strain AM2007/0121) | MIC (C. glabrata; C. glabrata strain AM2007/0122) | MIC (C. glabrata; C. glabrata strain AM2007/0123) | MIC (C. glabrata; C. glabrata strain AM2007/0124) | MIC (C. glabrata; C. glabrata strain AM2007/0126) | MIC (C. glabrata; C. glabrata strain AM2007/0127) | MIC (C. glabrata; C. glabrata strain AM2007/0128) | MIC (C. glabrata; C. glabrata strain AM2007/0129) | MIC (C. glabrata; C. glabrata strain AM2007/0130) | MIC (C. parapsilosis; C. parapsilosis strain AM2005/0237) | MIC (C. parapsilosis; C. parapsilosis strain AM2005/0239)
125 µM: MIC (A. nidulans; A. nidulans strain AFG9811-35)
4 µM: MIC (C. parapsilosis; C. parapsilosis strain AM2005/0242)
